Literature values, collected in patent JP2018030810A, “ゲフィチニブを有効成分とする医薬錠剤の製造方法” (Nippon Kayaku Co Ltd, priority 2016, dated 2018).
Values after ≈ are worked out from the molar mass of the structure shown. Where two headings read alike, the source gives them in different places.

- solubility (in words) (pH1): 可溶性
- solubility (in words) (pH4〜6): 溶解度は大きく低下
- solubility (pH6): ~1000 µg/mL (≈ 2240 µM)
- solubility (in words) (pH7): 実質的に不溶性
- aqueous solubility (in words) (small intestine environment, pH4〜8): 水溶解度が極端に低下する
- aqueous solubility (in words) (stomach, acidic environment pH1〜4): 良好な水溶解度
- solubility (in words) (water): ほとんど溶解しない
SMILES: COc1cc2ncnc(Nc3ccc(F)c(Cl)c3)c2cc1OCCCN1CCOCC1 [ゲフィチニブ, N−(3−クロロ−4−フルオロフェニル)−7−メトキシ−6−[3−(モルフォリン−4−イル)プロポキシ]キナゾリン−4−アミン]
